Laboratory results taken from ChEMBL document CHEMBL1201862, “PubChem BioAssay data set” (2004).
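48-hour exposure; five concentrations; linearly interpolated endpoints. GI50 = concentration required for 50% inhibition of growth.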 The source made the active and inactive calls. Rule as the data show it: active = GI50 up to about 1.1 µM and inactive = higher.

Experiments:
Experiment in all cases: inhibition of tumour cell growth, NCI panel, 48 h
A498 = test system: A498
HOP-62 = test system: HOP-62
HT-29 = test system: HT-29
786-0 = test system: 786-0
UACC-257 = test system: UACC-257
HOP-92 = test system: HOP-92
UO-31 = test system: UO-31
EKVX = test system: EKVX
RXF 631 = test system: RXF 631
HCT-116 = test system: HCT-116
NCI-H522 = test system: NCI-H522
A549 = test system: A549
NCI-H460 = test system: NCI-H460
SK-MEL-28 = test system: SK-MEL-28
SNB-19 = test system: SNB-19
IGROV-1 = test system: IGROV-1

Measured: GI50

O=S(=O)(O)CS(=O)(=O)OCCCl
inactive: A498 > 100 µM | HOP-62 > 100 µM | HT-29 > 100 µM | 786-0 > 100 µM | UACC-257 > 100 µM | HOP-92 > 100 µM | UO-31 > 100 µM | EKVX > 100 µM | RXF 631 > 100 µM | HCT-116 > 100 µM | NCI-H522 > 100 µM | A549 > 100 µM | NCI-H460 > 100 µM | SK-MEL-28 > 100 µM | SNB-19 > 100 µM | IGROV-1 > 100 µM

COc1ccc(NC(=O)CC(=O)n2nc(-c3ccccc3)c(/N=N/c3ccccc3C(=O)O)c2-c2ccccc2)cc1
inactive: HOP-62 30.1 µM | 786-0 21.9 µM | HOP-92 18.5 µM | UO-31 > 100 µM | EKVX 34.6 µM | RXF 631 > 100 µM | HCT-116 > 100 µM | NCI-H522 > 100 µM | A549 > 100 µM | SK-MEL-28 74.5 µM | SNB-19 63 µM | IGROV-1 83.4 µM

CCn1c(O)c(C(=O)Nc2cccs2)c(=O)n(CC)c1=S
inactive: A498 19.5 µM | HOP-62 21.6 µM | HT-29 17.6 µM | 786-0 19.6 µM | UACC-257 22.7 µM | HOP-92 21 µM | RXF 631 19 µM | HCT-116 19.2 µM | NCI-H522 18 µM | A549 18.5 µM | NCI-H460 15.5 µM | SK-MEL-28 17.3 µM | SNB-19 19.5 µM | IGROV-1 20.5 µM

NC1=NC(=O)C(CC(=O)Nc2ccc([N+](=O)[O-])cc2[N+](=O)[O-])S1 (centres undefined)
inactive: HOP-62 > 100 µM | HT-29 > 100 µM | 786-0 > 100 µM | UACC-257 > 100 µM | HOP-92 16.7 µM | UO-31 > 100 µM | EKVX > 100 µM | RXF 631 > 100 µM | HCT-116 > 100 µM | A549 > 100 µM | NCI-H460 > 100 µM | SK-MEL-28 > 100 µM | SNB-19 > 100 µM | IGROV-1 > 100 µM

COc1ccc2c(C(=O)O)cc3cc(OC)c(OC)cc3c2c1
inactive: HT-29 > 100 µM | 786-0 > 100 µM | UACC-257 > 100 µM | HOP-92 > 100 µM | UO-31 > 100 µM | EKVX > 100 µM | RXF 631 > 100 µM | HCT-116 > 100 µM | NCI-H522 > 100 µM | A549 > 100 µM | NCI-H460 > 100 µM | SK-MEL-28 > 100 µM | SNB-19 > 100 µM | IGROV-1 > 100 µM

CC(=O)CC(=O)CCCC(=O)Nc1ccc(Cl)cc1C
inactive: A498 > 100 µM | HT-29 > 100 µM | 786-0 > 100 µM | UACC-257 > 100 µM | HOP-92 > 100 µM | UO-31 > 100 µM | EKVX > 100 µM | RXF 631 > 100 µM | HCT-116 > 100 µM | NCI-H522 > 100 µM | A549 > 100 µM | NCI-H460 > 100 µM | SNB-19 > 100 µM | IGROV-1 > 100 µM

N#Cc1c(NN)nc(NN)c(C#N)c1-c1ccccc1
inactive: A498 > 100 µM | HOP-62 > 100 µM | HT-29 > 100 µM | 786-0 > 100 µM | UACC-257 > 100 µM | HOP-92 > 100 µM | UO-31 > 100 µM | EKVX > 100 µM | RXF 631 > 100 µM | HCT-116 > 100 µM | A549 > 100 µM | NCI-H460 > 100 µM | SK-MEL-28 > 100 µM | SNB-19 > 100 µM | IGROV-1 > 100 µM

COC1/C(=C\C(C)=O)c2ccccc2N1C(C)=O (centres undefined)
inactive: A498 > 100 µM | HOP-62 > 100 µM | HT-29 > 100 µM | 786-0 > 100 µM | UACC-257 > 100 µM | HOP-92 > 100 µM | UO-31 > 100 µM | EKVX > 100 µM | RXF 631 > 100 µM | HCT-116 > 100 µM | A549 > 100 µM | NCI-H460 > 100 µM | SK-MEL-28 > 100 µM | SNB-19 > 100 µM | IGROV-1 > 100 µM

c1ccc2c(CNCCCN3CCN(CCCNCc4cccc5ccccc45)CC3)cccc2c1
inactive: A498 10.9 µM | HOP-62 19.8 µM | HT-29 1.65 µM | 786-0 1.91 µM | UACC-257 1.92 µM | HOP-92 1.74 µM | UO-31 1.82 µM | EKVX 3.6 µM | RXF 631 1.13 µM | HCT-116 1.51 µM | NCI-H522 1.59 µM | A549 2.01 µM | NCI-H460 1.41 µM | SK-MEL-28 1.69 µM | IGROV-1 3.07 µM
